Measurements taken from a melting point compilation (Tetko et al.; mined from patent text by program, amines drawn as free bases though some values may be those of a salt).

Compound	melting point [°C]
Nc1nc(N)n(CCCOc2cccc(CN3CCCCC3)c2)n1	100
CC(C)c1nc(C2CCCCC2)cc(-c2ccc(F)cc2)c1C=O	59 to 61
COc1cc2c(cc1OCc1ccccc1)C(C#N)(Sc1ccc(Cl)cc1)C2 (stereo not drawn)	114 to 115
COC(=S)c1ccc2ccc(C(=O)N(C)C)cc2c1	123 to 124
CC(C)C(O)=C(C#N)C#N	92 to 93
CC(C)(C)OC(=O)N1C[C@H](O)C[C@H]1C(N)=O	146 to 148
Nc1c2c(nc3cc(Cl)ccc13)CCCC2=O	285 to 287
O=C1N(CC2CCCO2)c2cccc(Br)c2C12COc1cc3c(cc12)CCO3 (stereo not drawn)	137 to 141
CC(Br)C(=O)c1ccc(OC(=O)C(C)(C)C)c(OC(=O)C(C)(C)C)c1 (stereo not drawn)	58 to 60
Cc1cc(C)cc(C(Cl)=NNc2ccccc2)c1	47.5 to 48.5
Cc1c(NC(=O)c2ccc(OC[C@@H]3CCCO3)cc2F)ccc2c1cc(CNCC1CCOCC1)n2C	149
CCOC(=O)C1(O)CCSc2ccccc21 (stereo not drawn)	117 to 119
Nc1ncnc2c1c(-c1ccc(OCc3ccccc3)cc1)cn2-c1ccc(OCCn2ccnc2)cc1	105 to 107
O=C1C(Cc2ccccc2CF)c2ccccc2C12COc1cc3c(cc12)OCCO3 (stereo not drawn)	188 to 190
COC(=O)C1=C(C(=O)N(C(=O)CCl)c2cc(OC)c(Cl)cc2F)CCCC1	109
OCCn1ccc(NC(=S)NCC(F)(F)F)n1	145 to 146
COc1cc(COc2nn(CCO)cc2C=O)ccc1OCc1nc(-c2ccco2)oc1C	149 to 150
COC(=O)CCNC(=O)C(=Cc1ccccc1)CSC(C)=O	54
Cc1cccc(C(=O)n2nc(Nc3cccc(OCC(=O)N4CCNCC4)c3)nc2N)c1	169 to 171
NS(=O)(=O)c1ccc(NC(=O)CNc2ccccc2)c(F)c1	197 to 198

Compound	melting point [°C]
CS(=O)(=O)c1nnc(S(=O)(=O)Cc2ccc(Cl)cc2)s1	159 to 160
COc1cccc(CNC(=O)c2nc3ccccc3c(=O)[nH]2)c1	186 to 189
O=C(CCCl)Nc1ccc2c(c1NC(=O)CCCl)C(=O)c1ccccc1C2=O	179 to 180
NC1=CC2=C(CC1)CCc1c2[nH]c(=O)c(=O)n1Cc1ccccc1	290
OCC1c2ccccc2-c2c1c1ccccc1c1ccccc21 (stereo not drawn)	143 to 145
CCC(C1CCCC1)C(O)(c1ccc(O)cc1)c1ccc(OCCN(C)C)cc1 (stereo not drawn)	112 to 120
Cc1c(C(F)(F)F)nn(-c2c(Cl)cc(C(F)(F)F)cc2Cl)c1N	97 to 100
FC(Sc1nnc(-c2ccc(Cl)cc2)s1)=C(F)C(F)(F)F	69 to 70
O=C(O)c1c(-c2cccc([N+](=O)[O-])c2)oc2ncnc(O)c12	> 300
COc1cc(OC)cc(Oc2ncccc2OCCCc2ccncc2O)c1	172 to 178
COC(=O)c1cccc2[nH]c(-c3ccc(Cl)cc3)cc12	150 to 152
CCOC(=O)C(=CNc1ncccc1C)C(=O)OCC	65 to 67
COc1nc(-c2ccccc2)c(-c2ccc(=O)n(C(C)C)n2)nc1C#N	170 to 172
O=C(N1CCOCC1)C12CC(CN1)C2	97.5 to 98
CCCCNNc1nc(C)c(C(=O)OCC)c(Cl)c1[N+](=O)[O-]	59 to 61
COc1ccc2c(c1)CCN1CCC(Nc3ccc(NC(C)=O)cc3)CC21 (stereo not drawn)	219 to 221
Cc1cc(Cl)ccc1Cn1nc(C=O)c2ccccc21	107 to 109
O=c1c2cccc(O)c2nc(-c2ccc(OCCCl)cc2)n1-c1ccc(O)cc1	188 to 190
CCOC(=O)COc1ccc(C2=NNC(=O)NC2)cc1	181 to 183

The remaining lines, values ahead:

melting point [°C]	Compound
172 to 173	CC1(C)COc2ccc(C(=O)O)cc2OC1
150 to 153	CC(C)C[C@H](NC(=O)Cc1csc2ccccc12)C(=O)N[C@@H](Cc1ccccc1)C(=O)CSCc1ccco1
115 to 119	C=C(CC)C(=O)c1ccc(OC(C)C(=O)O)c(Cl)c1Cl (stereo not drawn)
173 to 175	CN(Cc1ccc(NC(=O)C2=Cc3cc(Br)ccc3N(C=O)CC2)cc1)C1CCOCC1
236	O=C(Nc1ccccn1)c1c(C(F)(F)F)nc2c(C(F)(F)F)cccc2c1O
221	N#Cc1c(N2CCN(C(=O)c3ccco3)CC2)c2cc(Cl)ccc2n(Cc2ccccc2)c1=O
225 to 227	Cc1nc(NC(=O)NC(=O)c2c(Cl)cccc2Cl)cnc1-c1ccc(Br)cc1
224 to 226	Fc1ccc2nc(S)sc2c1
218 to 220	COc1cc2c(cc1-c1cccnc1)-c1c(C3NCCO3)c3c(n1CC2)C(=O)N(C(C)(C)C)CCC3 (stereo not drawn)
170 to 172	CCN(CC)c1ccc(NC(=O)N(C[C@@H]2CCC[C@H](CN(C(=O)Nc3ccc(N(CC)CC)cc3)C3CCCCC3)C2)C2CCCCC2)cc1
50 to 54	O=C1C(c2cccc(Br)c2)n2cncc2CN1Cc1ccncc1 (stereo not drawn)
108 to 111	CCCCCCCCCC[C@@H]1C(=O)OC(c2ccccc2)=C[C@@H]1C(=O)OC
67 to 70	CC(C)N(C[C@H](O)CO)S(C)(=O)=O
116 to 119	Cc1nccn1C(=O)c1c(Cl)cccc1Cl
145 to 146	O=C(O)[C@H](Cc1ccc(C(F)(F)F)cc1)[C@@H](O)c1ccc(Cl)nc1 (racemic)
114 to 116	NN(c1ccccc1)c1cc(Cl)nc(Cl)n1
186 to 187	CN(Cc1ccc(NC(=O)C2=Cc3cc(-c4ccncc4)ccc3OCC2)cc1)C1CCOCC1
263 to 264	COc1ccc(-n2cc(/C=C(\C#N)C(=O)NS(=O)(=O)c3ccccc3)c(-c3ccc(Cl)c(F)c3)n2)cc1Cl
75 to 76.5	CCCN1CC=C(c2ccc(Cl)cc2)C(C(=O)OCc2ccccc2)C1 (stereo not drawn)
130 to 132	O=C1c2ccccc2C(=O)N1Cc1ccc(SC(F)(F)F)cc1

melting point [°C]	Compound
168	Cc1cccc(CN(Cc2cccc(C)n2)C(c2ccccn2)c2ccccn2)n1
164 to 165	Nc1nc2c(s1)CCN(CC=Cc1ccc3ccccc3c1)CC2
100 to 101	O=C(Nc1ccc(F)cc1)N1CC=CCN1
100 to 102	COC(=O)CN(Cc1ccccc1N)S(=O)(=O)c1ccc(OC)cc1
97 to 98	COc1c(C(=O)c2ccc([N+](=O)[O-])cc2Cl)c(C)nn1C
145 to 146	COc1ccc(COc2ccc(NC(C)=O)cc2C(=O)C=Cc2ccc(OCc3ccccc3)c(OCc3ccccc3)c2)cc1
237 to 239	C[C@H]([C@](O)(Cn1cncn1)c1ccc(F)cc1F)S(=O)(=O)N1CCN(c2ccc(-n3cnn(CC(F)(F)F)c3=O)cc2)CC1
201 to 204	Cc1nc2c3c(c(C(=O)N4CC4)cc2n1C)CCC(c1ccccc1)O3 (stereo not drawn)
178 to 180	O=C(O)c1cc2cc(F)c(C(F)(F)F)cc2[nH]1
67 to 69	COc1ccc2c(c1)CC(O)C2 (stereo not drawn)
90 to 91	OCC1CCc2cc3ccccc3n2CC1 (stereo not drawn)
105 to 107	CCN(CC)C(=O)c1c(Cl)cccc1C(=O)Nc1ccc(Cn2nc(C(F)(F)F)cc2C(F)(F)F)cc1C
147 to 149	O=C(CCCCBr)NNC(=O)N1Cc2ccccc2Oc2ccc(Cl)cc21
159 to 161	Cc1ccc(-c2ccc(O)cc2)c(-c2ccc(OCCN3CCCC3)cc2)n1
103	CCOC(=O)c1ccc(O[Si](C)(C)C(C)(C)C)c(OC)c1
150 to 152	Cc1ccc2c3c(c(=O)oc2c1)CN(CCN1CC2CCCC(C2)C1)CC3
231 to 234	Cc1ccc(S(=O)(=O)c2nsc3nc4ccccc4n23)cc1
90 to 91	CC1CCCC(C)N1CCCC(O)(c1ccccc1)c1ccccc1 (stereo not drawn)
116 to 121	Nc1cccc(CC(=O)O)c1
66 to 67	COC1=CC=C(CN2CCN(CCCC(=O)c3ccc(F)cc3)CC2)C(F)C1=NNS(=O)(=O)c1ccc(C)cc1 (stereo not drawn)

melting point [°C]	Compound
240 to 242	CCc1cccc(CNC(=O)c2nc3scc(COCc4ccc(C(=O)O)cc4)c3c(=O)[nH]2)c1
285 to 287	Cc1ccc2ncn(C3CCC(=O)NC3=O)c(=O)c2c1 (stereo not drawn)
60	CC(C)(C)OC(=O)N1CCCC(C(=O)OCC(=O)C(C)(C)C)(C(=O)OCc2ccccc2)C1 (stereo not drawn)
77 to 78	N#Cc1cc(Cl)cc(Cl)c1Cl
> 268	Oc1ccc(Nc2ncc3ncc(-c4ccc(O)cc4)cc3n2)cc1
184 to 185	N#CC1=C(n2cccc2)Oc2c(ccc3ccccc23)C1c1cccc([N+](=O)[O-])c1 (stereo not drawn)
257 to 260	CCCn1nc2c(N)nc3ncccc3c2c1CC(C)C
226	CC(=O)Nc1ccn([C@@H]2CC[C@H](OC(C)=O)[C@@H](OC(C)=O)[C@H]2OC(C)=O)c(=O)n1 (racemic)
50 to 52	O=[N+]([O-])c1ccc(C(O)c2ccoc2)cc1 (stereo not drawn)
82 to 83	O=C1c2cc(Cl)ccc2COc2ccccc21
97.2	COCCNc1ccc(CN2CCN(C(c3ccccc3)c3ccccc3)CC2)cc1[N+](=O)[O-]
273 to 275	O=C(NC1CCCCC1)N1CCc2cc(S(=O)(=O)N3CC(c4ccccc4)NC3=O)ccc21 (stereo not drawn)
234	Nc1nc(Nc2cccc(Br)c2)c2c(n1)[nH]c1ccccc12
209 to 210	CCCCc1ccc(-c2cc(C(=O)O)cc(-c3ccc(Cl)cc3)n2)cc1
134 to 137	Cc1ccc([N+](=O)[O-])cc1CNC(=O)c1ccccc1
143 to 145	COc1ccc(-c2cc(Sc3ccc([N+](=O)[O-])cc3[N+](=O)[O-])sc2-c2ccc(OC)cc2)cc1
101 to 105	CCN1CCN(CCOc2cc3ncc(C#N)c(Nc4cc(OC)c(Cl)cc4Cl)c3cc2OC)CC1
237 to 239	O=S(=O)(CC(F)(F)F)NC(c1ccc(Cl)c2nc3n(c12)CCCN3c1c(Cl)cc(Cl)cc1Cl)C(F)(F)F (stereo not drawn)
172 to 174	CC(C)N1CCC(CN2CCN(CC3CCN(C(C)C)CC3)C2=C(C#N)C#N)CC1
